We go through 17 substances from patent publication US7741274B2, “Casein derived peptides and uses thereof in therapy” (priority 2000, dated 2010).

The subject of assay [1] is Non-Obese Diabetic (NOD) mice. As to the kind of experiment: Prevention of glucosuria / Juvenile (Type I, IDDM) Diabetes in NOD mice. Particulars: for Healthy/Total* (healthy and well = sugar not detected in urine): female NOD mice. It counts as in vivo, mouse. How it is done: Juvenile (Type I, IDDM) Diabetes in Non-Obese Diabetic (NOD) Mice:
Peptides Derived from Natural Casein:
NOD mice are a commonly used model for research of autoimmune disease and human Juvenile Diabetes. Six week old female NOD mice received either one or two injections per week of 100 μg of peptides derived from natural casein, for a total of 5 or 11 treatments. Control mice received no treatment. The severity of disease was determined according to glucosuria, which was measured using Combi test sticks [Gross, D. J. et al. (1994), Diabetology, 37:1195]. Results were expressed as the percent of glucosuria-free mice in each sample over a 365-day period.
Synthetic Peptides Derived from Casein:
In another experiment, 6 week old female NOD mice received one injection per week of 100 μg of Synthetic peptides derived from casein for a total of 5 treatments. Control mice received no treatment. Results were expressed as the number of healthy mice in the various treated groups.

Assay [2] relates to murine primary bone marrow cells. The assay is described as follows: Multipotential colonies (CFU-GEMM) from murine bone marrow cells, colony and differential counts. It counts as cell-based, mouse. Particulars: for macrophages, % of total cell count: approximately 17% in unincubated controls; for megakaryocyte formation and development: 8 days treatment. How it is done: Stimulation of Hematopoiesis from Bone Marrow (BM) Cells in Culture:
Proliferation of megakaryocytes in multipotential colonies (CFU-GEMM) from murine Bone Marrow cells: Primary bone marrow cells (1×10^5 per ml) from 8-12 week-old C3H/HeJ mice were grown in serum-free methyl cellulose-IMDM medium for 8-9 days at 5% CO2, 95% air, at 37° C. The medium, appropriate for the growth of multipotential colonies (CFU-GEMM), contained 1% BSA (Sigma), 10^−4 M thioglycerol (Sigma), 2.8×10^−4 M human transferrin (TF, Biological industries, Israel), 10% WEHI-CM as a source of IL-3 and 2 units per ml erythropoietin (rhEPO, R & D Systems, Minneapolis). Colonies were scored after 8-9 days using an Olympus dark field microscope. They were picked with a micropipette, cytocentrifuged and stained with May-Grunwald-Giemsa for differential counts. At least 700 cells were counted for each preparation. […]
Proliferation of Macrophage cells in CFU-GEMM: Multipotent (CFU-GEMM colonies grown from primary bone marrow cells as described for the assay of megakaryocyte proliferation above were collected, stained and counted for macrophage cells. At least 700 cells were counted for each preparation.
Proliferation of Red Blood Cells in CFU-GEMM: Multipotent (CFU-GEMM) colonies grown from primary bone marrow cells as described for the assay of megakaryocyte proliferation above were collected, stained and counted for red blood cells. At least 700 cells were counted for each preparation. […]

Assay [3] has as its system lethally irradiated, bone marrow-reconstituted mice. The assay is described as follows: Leukocyte and platelet reconstitution in bone marrow transplant recipient mice. It counts as in vivo, mouse. Particulars: for peripheral white blood cell counts: BALB/c, 600 cGy, 1 mg per mouse intraperitoneal; for platelet counts: 800 cGy, 100 μg per mouse i.p. on days 4-7. How it is done:
Leukocyte and platelet reconstitution in bone marrow transplant recipient mice: BALB/c mice were lethally irradiated at a source to skin distance of 70 cm, dosage of 50 cGy per minute, for a total of 600 cGy. The irradiated mice were […] casein, synthetic peptides derived from casein (13-26 amino acids, see Table 3 above), or human serum albumin (controls), following a double-blinded protocol. Leukocyte reconstitution was determined according to cell count in peripheral blood collected at indicated intervals from 6 to 12 days post treatment. Platelet reconstitution was determined by cell count in blood collected from the retro orbital plexus, into heparinized capillaries, at indicated intervals from day 6 to day 15 post treatment.
In an additional series of experiments, CBA mice were lethally irradiated (900 cGy), reconstituted and treated with peptides derived from natural casein or human serum albumin as described above. Platelet reconstitution was assayed as mentioned above.
In a third series of experiments, the mice were irradiated (800 cGy), reconstituted and injected intraperitoneally with 100 μg synthetic peptides derived from casein (peptides 3a and 4P, representing the first 6 and 12 amino acids of the N terminus of αS1 casein, respectively—see Table 3 above) daily, on days 4, 5, 6 and 7 post-transplantation. Platelet reconstitution was assayed at 10 and 12 days post-transplantation.

The next assay has as its system HIV-1IIIB. The assay is described as follows: Inhibition of HIV-1 infection of CEM lymphocytes (cell counts, P24 antigen assay). The assay is classed as cell-based. How it is done: Inhibition of in vitro HIV infection of human lymphocyte cells:
Peptides: Peptides (either peptides derived from natural casein or synthetic peptides derived from casein (1-25 amino acids in length, see table 3) supplied as lyophilized powder were resuspended in RPMI complete medium and added to cell cultures at a final concentrations of 50 to 1000 μg per ml.
Cells: Several types of freshly isolated human cells (primary cells) and cell lines are known to be susceptible to in vitro HIV-1 infection, although essentially any cell displaying even low surface levels of the CD4 molecule can be considered a potential target for HIV-1 infection. Two commonly used human cell lines which are highly sensitive for HIV-1 infection were chosen, CEM and Sup-T1.
CEM is a human T4-lymphoblastoid cell line initially derived by G. E. Foley et al. [(1965), Cancer 18:522] from peripheral blood buffy coat of a person with acute lymphoblastic leukemia. These cells were continuously maintained in suspension in medium, and have been used widely for analysis of infectivity, antiviral agents and neutralizing antibodies.
Virus: The HIV virus strain employed was HIV-1IIIB, originally designated HTLV-IIIB. Concentrated culture fluids of peripheral blood from several patients with AIDS or related diseases were used to establish a permanent productive infection in H-9 cells. This subtype B virus has high capacity to replicate in human T-cell lines. Viral titer was 5.38 ng per ml in stock solution.
HIV-1 P24 antigen capture assay: An HIV-1 P24 Antigen capture assay kit employed was designed to quantitate the HIV-1 P24 core antigen, which is proportionally related to the degree of viral production in cells. This kit was purchased from the AIDS Vaccine program of the SAIC-NCI-Frederick Cancer Research Institute, P.O. Box B, Frederick, Md. 21702, USA and included 96 well plates coated with monoclonal antibody to HIV-1 P24, primary antibody-rabbit anti-HIV P24 serum, secondary antibody-Goat anti-rabbit-IgG (H+ L) peroxidase conjugated antibody, TMB peroxidase substrate system and lysed HIV-1 P24 standard. The HIV-1 P24 antigen capture assay was analyzed by Organon-Technica ELISA reader at 450 nm with a reference at 650 nm.
HIV-1 P24 antigen capture ELISA: HIV infection was measured with an indirect enzyme immunoassay which detects HIV-1 P24 core antigens in tissue culture media. Tissue culture supernatant was reacted with primary rabbit anti-HIV-1 P24 antigen and visualized by peroxidase conjugated goat anti rabbit IgG. The reaction was terminated by adding 4N H2SO4, wherein the intensity of the color developed is proportional to the amount of HIV-1 antigen present in the tissue culture supernatant.
HIV infection of human cultured CD4+ cells: The cells (CEM, Sup-T1) were preincubated with several increasing concentrations of peptides derived from natural casein (50-1000 μg per ml) or synthetic peptides derived from casein (10-500 μg per ml) for 3, 24 (for synthetic and natural peptides) and 48 (only for natural peptides) hours and HIV-1IIIB (45 μg per ml final concentration) was added to each well thereafter. HIV-1IIIB was preincubated with the peptides for 3 hours and then added to cells (5000 cells/well) in tissue culture plates. Controls were IF (Infected, cells cultured with HIV-1 and without peptides), UIF (Uninfected, cells cultured without HIV-1 and without peptides) and UIF+Ch (Uninfected+peptides derived from natural casein, cells cultured in the presence of peptides derived from natural casein {50-1000 μg per ml}) to test the effect of peptides derived from natural casein and synthetic peptides derived from casein on cell viability and growth. Cells were counted for viability and proliferation rate on day 7, 10 and day 14 post infection (the day of P24 antigen culture supernatant harvest). Cells and tissue culture supernatants (media) were harvested and lysed immediately in 1/10 volume of 10% Triton X-100. […]

The subject of assay [4] is Non-Obese Diabetic (NOD) mice. As to the kind of experiment: Intraperitoneal Glucose Tolerance Test (IPGTT) in NOD mice. It counts as in vivo, mouse. Further details: IPGT TEST 0 min. (pre-load), plasma glucose: unit not given here. Particulars: individual healthy NOD mice, 25 weeks after peptides. How it is done:
Intraperitoneal Glucose Tolerance Test (IPGTT):
The glucose tolerance test is the definitive method for investigating glucose metabolism and diabetic tendencies in mammals. Twenty five (25) weeks after receiving Synthetic peptides derived from casein, response to a glucose load was assessed with an intraperitoneal glucose tolerance test. Glucose injection consisted of 1 g/kg body weight. Glycemic values were determined from blood drawn prior to test (0 minutes) and 60 minutes after loading.

Setting [5] is: 100 μg once weekly for 5 weeks, evaluated after 25 weeks.
Where [6] appears, read: 12 days post transplantation, controls 676 (4P) and 461 (3a).

On to RPKHPIKHQGLPQEVLNENLLRF, for which, in assay [1] (setting [5]), the “Healthy/Total* (healthy and well = sugar not detected in urine)” value is listed as 2/5. Also, in assay [2], the “macrophages, % of total cell count” value is about 30%.
Consider RPKHPIKHQGLPQEVLNENLL, for which the “Healthy/Total* (healthy and well = sugar not detected in urine)” value in assay [1] (setting [5]) is 2/5. The “megakaryocyte formation and development” value in assay [2] is recorded as “significant increase”.
In the case of RPKHPIKHQGLPQEVLNE [F], in assay [2], the “megakaryocyte formation and development” value is given as “significant increase”.
Take RPKHPIKHQGLPQ [A]: the “Healthy/Total* (healthy and well = sugar not detected in urine)” value in assay [1] (setting [5]) is 2/5. In addition, the “peripheral white blood cell counts” value is 17.2 ×10^6 cells per dl in assay [3] (day 10, albumin control 16.7) and 65.4 ×10^6 cells per dl in assay [3] (day 12, albumin control 46.4).
Consider RPKHPIKHQGLP [3a], for which the “prevention of glucosuria (in words)” value in assay [1] (setting [5]) was “highly effective”. For the same substance, the “Healthy/Total* (healthy and well = sugar not detected in urine)” value in assay [1] (setting [5]) is 3/5. In addition, the “megakaryocyte formation and development” value in assay [2] is on record as “significant increase”. Moreover, the figures for the “increase of platelet counts over untreated controls” value in assay [3] (10 days post transplantation) and in assay [3] (12 days post transplantation) were “up to 35.5%” and “up to 13.5%”, respectively. Also, the platelet counts in assay [3] (10 days post transplantation, control 169) was 229000 mL⁻¹; in assay [3] (setting [6]) it was 622000 mL⁻¹.
For RPKHPI [4P], in the assay with HIV-1IIIB (25 μg per ml, 3 hours pretreatment, infected control 1.06×10^6), the cell counts was 1.26 ×10^6. Moreover, the cell numbers with HIV-1IIIB (250 μg per ml, 3 hours preincubation, infected control 1.06×10^6) is 1.59 ×10^6. In the assay on HIV-1IIIB (3 hours pretreatment), the “resistance of CEM cells to HIV-1 infection (in words)” value is on record as “significant effect on the susceptibility”. Also, in the assay with HIV-1IIIB (7 days post infection), the “viral particles by HIV-P24 antigen assay vs untreated, infected control” value was “dose dependent reduction”. Besides, the “megakaryocyte formation and development” value in assay [2] is “significant increase”. Moreover, the “increase of platelet counts over untreated controls” value in assay [3] (12 days post transplantation) came to 29%. For the same substance, the platelet counts in assay [3] (setting [6]) stood at 872000 mL⁻¹.
Turning to RPKHPIKHQGLPQEVLNEN, the “megakaryocyte formation and development” value in assay [2] is listed as “significant increase”.
Take RPKHPIK [5P]: in assay [2], the “macrophages, % of total cell count” value is about 30%.
For RPKHPIKHQGLPQEVLN, in assay [2], the “megakaryocyte formation and development” value was “significant increase”. The “peripheral white blood cell counts” value in assay [3] (day 10, albumin control 16.7) is on record as 27.4 ×10^6 cells per dl; in assay [3] (day 12, albumin control 46.4), 52.0 ×10^6 cells per dl.
As for RPKHPIKHQGLPQE [B], the “Healthy/Total* (healthy and well = sugar not detected in urine)” value in assay [1] (setting [5]) is given as 2/5. The “IPGT TEST 0 min. (pre-load), plasma glucose” value in assay [4] came to 130. The “IPGT TEST 60 min. post load, plasma glucose” value in assay [4] (glucose 1 g/kg i.p.) was 97 mmol/L.
RPKH [2P]: the onset of glucosuria result in assay [1] (assayed at week 16, untreated controls 100% glucosuria, data not shown) is “effectively prevented”. The “red blood cells, % of total cell count” value in assay [2] (53% in unincubated controls) was determined as 71%.
For the substance RPKHPIKHQGLPQEVL [D], the “Healthy/Total* (healthy and well = sugar not detected in urine)” value in assay [1] (setting [5]) is 2/5. In assay [2], the “macrophages, % of total cell count” value was about 30%.
In the case of RPKHPIKHQGLPQEVLNENL, the “megakaryocyte formation and development” value in assay [2] is reported as “significant increase”.
Turning to RPKHPIKHQGLPQEVLNENLLRFF, the “megakaryocyte formation and development” value in assay [2] was “significant increase”.
RPKHPIKHQGLPQEVLNENLLR [J]: the “Healthy/Total* (healthy and well = sugar not detected in urine)” value in assay [1] (setting [5]) is 3/5.
On to RPKHPIKH [Y], for which the “Healthy/Total* (healthy and well = sugar not detected in urine)” value in assay [1] (setting [5]) is recorded as 1/5.
Turning to RPKHPIKHQG [1a], the “Healthy/Total* (healthy and well = sugar not detected in urine)” value in assay [1] (setting [5]) is 1/5. Further, in assay [4], the “IPGT TEST 0 min. (pre-load), plasma glucose” value is 88.
